For five compounds, IC50 and melting point results are on record in patent US12139461B1, “Piperidine compounds as PDE5 inhibitors” (KING SAUD UNIVERSITY, priority 2024, dated 2024).

In data set [1] the target is Phosphodiesterase type 5 (PDE5) (Homo sapiens (Human), UniProt O76074). As to the kind of experiment: In vitro phosphodiesterase type 5 (PDE5) inhibition assay. Format: biochemical. Conditions: purified PDE5, IMAP FP assay.

Consider `COc1ccc(CNC(=O)CN2CCC(Cc3ccccc3)CC2)cc1` [Compound C33, 2-(4-Benzylpiperidin-1-yl)-N-(4-methoxybenzyl)acetamide], for which the melting point – broadly, the temperature, or range, at which the solid turns liquid – was in the range of 89 to 91 °C. For the same compound, the concentration for half-maximal inhibition (IC50) (in general, the concentration at which inhibition is half-maximal) in data set [1] was determined as 99.8 ± 1.94 nM.

With `COc1ccccc1S(=O)(=O)N1CCC(c2ccccc2)CC1` [Compound C3, 1-((2-Methoxyphenyl)sulfonyl)-4-phenylpiperidine], the melting point was in the range of 173 to 175 °C. Moreover, the midpoint of inhibition in data set [1], the IC50, lay at 85.2 ± 1.66 nM.

Consider `COc1ccc(S(=O)(=O)N2CCC(c3ccccc3)CC2)cc1OC` [Compound C2, 1-((3,4-Dimethoxyphenyl)sulfonyl)-4-phenylpiperidine], for which the melting point is 207 to 209 °C. The compound further yielded an IC50 in data set [1] of 185 ± 3.61 nM.

`Cc1cc(C)c(S(=O)(=O)N2CCC(Cc3ccccc3)CC2)c(C)c1` [Compound C26, 4-Benzyl-1-(mesitylsulfonyl)piperidine] yielded a melting point of 70 to 72 °C. The same compound gave an IC50 in data set [1] of 107 ± 2.09 nM.

`O=C(CN1CCC(Cc2ccccc2)CC1)NCc1ccc(F)cc1` [Compound C16, 2-(4-Benzylpiperidin-1-yl)-N-(4-fluorobenzyl)acetamide] came in with a melting point of 72 to 74 °C. In addition, the IC50 in data set [1] came out at 484 ± 9.44 nM.
